Data on two compounds can be found in US9198894B2, “Uses of 15-benzylidene-14-deoxy-11,12-didehydroandrographolide derivatives in the preparation of antineoplastic drugs” (Zhengzhou University, priority 2010, dated 2015).

Read-outs that look alike come from different tables or passages of the source. Marks after values point to notes of the source that are not given here.

For series [1], the system named is Eca-109 human esophageal carcinoma cells. Description: Wound healing (two-dimensional migration) assay, Eca-109. The class given is cell-based. The following applies: Eca-109, 10.00 μmol/l, 24 h (FIG. 1A). On the procedure:
(§1) 1) Cell lines: Cell lines of 5637 human bladder carcinoma, Eca-109 human esophageal carcinoma, HT29 human colon cancer, SGC-7901 human gastric cancer, A549 human lung adenocarcinoma and PC-3 human prostate carcinoma were purchased from the Type Culture Collection of the Chinese Academy of Sciences, Shanghai, China.
(§2) 3) Methods: The cells were trypsinized to generate a single-cell suspension and seeded in 96-well plates (200 μl/well), and incubated with medium containing 10% fetal bovine serum at 37 in a humidified atmosphere with 5% CO2. Following a 24 h incubation, the cells were starved for an additional 12 h in low-serum media (1% FBS). The cultures of Eca-109, HT29, 5637, SGC-7901, A549 and PC-3 were then scratched away with a 200-μl plastic pipette tip and rinsed twice with PBS to remove wound-derived loose and dislodged cells. The cells were cultured in replaced medium without or with compounds at final concentrations of 0, 2.50, 5.00 and 10.00 μmol/L, respectively. At least seven randomly selected views along the scraped line in each well were photographed immediately and 24 h and 36 h after incubation using a digital camera at 50× magnification. The average scraped area in each well under each treatment condition was measured, and the percentage of inhibition against cell migration was calculated. % of inhibition=1−(A0−At)/(A′0−A′t)×100%, where, A0 and At are the areas of wound with compound treatment measured immediately and 24 or 36 h post-injury, respectively; A′0 and A′t are the areas of wound without compound treatment measured immediately and 24 or 36 h post-injury, respectively.

The test system of series [2] is A549 human lung carcinoma cells. Briefly: Wound healing (two-dimensional migration) assay, A549. The class given is cell-based. The following applies: A549, 10.00 μmol/l, 36 h (FIG. 1E). On the procedure:
as §1, §2

In series [3] the test system is B16-F10 mouse melanoma cells. The class given is in vivo. The following applies: B16-F10, C57BL/6 mice; for Lung index / Nodule number (melanoma nodules in lungs): mean ± s, n = 5. On the procedure:
1) Animals: A total of 20 C57BL/6 male mice of clean grade [Number of Animal License: SCXK (Xiang) 2009-0004], weighing 18-22 g, were purchased from Hunan Slca Jingda Experimental Animal Center Company, Ltd., China.
2) Cells: B16-F10 mouse melanoma cells were purchased from Nanjing KeyGen Biotech. Co. Ltd., China.
(§3) 4) Method: B16-F10 cells in logarithmic growth phase were trypsinized, then resuspended in RPMI1640 medium containing 10% fetal bovine serum and centrifuged at 1000 rpm for 5 min. The supernatant was removed and sterile PBS was added to prepare single-cell suspension (10^7/mL). The murine melanoma lung metastasis model was established in mice via caudal vein injection of B16-F10 cells (0.2 ml/mouse). Mice were randomly divided into 4 groups (n=5) according to body weight, and 24 h later they were administrated intragastrically (ig; 0.2 ml/10 g) once a day continuously for 24 d with vehicle (tumor control group), Cyc (30 mg/kg), compound 3 at 0.85 mmol/kg and 1.10 mmol/kg. Mice were weighed and blood was collected by removing the eyeball at 24 h after the last administration. Sacrificed the mice, removed the lung and counted the number of melanoma nodules in lungs of mice under an anatomical lens. Serum obtained after centrifugation at 3000 rpm for 20 min (3K30 refrigerated centrifuge, Sigma, USA) was conserved at −20° C. Levels of TNF-α and IL-1β in serum were measured by ELISA method, which were performed in accordance with the instructions of the kits.
Data were expressed as mean±SD and statistical analysis was performed by SPSS Statistics 17.0 using a one-way analysis of variance (ANOVA) followed by unpaired t-test. A value of P<0.05 was considered statistically significant. The inhibition ratio (IR %) of lung metastasis was calculated as follows: IR %=(Nc−Nt)/Nc×100%, where Nc is the average number of nodules in lung tissues of vehicle, and Nt is that of mice treated with drugs.

The next series has as its system TNF-α. The class given is in vivo, mouse. The conditions noted are these: C57BL/6 mice, mean ± s, n = 5.
The next series has as its system IL-1β. The format is in vivo, mouse. The conditions noted are these: C57BL/6 mice, mean ± s, n = 5.
The format of series [4] is in vivo, mouse. The conditions noted are these: C57BL/6 mice, before vs 24 d after administration. On the procedure:
as §3

Series [5] has as its system A549 human lung adenocarcinoma. Description: Colony formation assay, A549. The class given is cell-based. How it is done: (§4) 1) Cell lines: Cell lines of SGC-7901 human gastric cancer, A549 human lung adenocarcinoma and Hela human cervical carcinoma were purchased from the Type Culture Collection of the Chinese Academy of Sciences, Shanghai, China.
(§5) 3) Method: Colony formation assay was used. The cells were trypsinized to generate a single-cell suspension and seeded in a 6-well plate at a density of 100 cells/well, then drug-containing medium was added to the well to make the final concentration of compound to 0, 1.25, 2.50, 5.00, 7.50, 10.00 μmol/L, respectively. The experiments were performed in duplicate, and the cells were cultured at 37 in a humidified atmosphere with 5% CO2. Terminate cell culture when the clones can be seen in the culture plate, then remove the culture medium, and wash twice with PBS, fix the cells with methanol (5 ml/well) for 15 min and stain the cells with hematoxylin-eosin stain. The number of clones which comprised more than 50 cells was counted under a TS100-F-PH microscope (Nikon Company, Japan). Calculate relative colony formation ratio (%) and the IC50 values. Relative colony formation ratio (%)=(colony number of drug-administration well/colony number of control well)×100%.

The subject of series [6] is Hela human cervical carcinoma. Briefly: Colony formation assay, Hela. The class given is cell-based. The conditions noted are these: Hela. How it is done:
as §4, §5

Series [7] relates to SGC-7901 human gastric cancer. Briefly: Colony formation assay, SGC-7901. The class given is cell-based. On the procedure:
as §4, §5

Series [8] relates to 5637 human urinary bladder cancer cells. Description: Wound healing (two-dimensional migration) assay, 5637. The format is cell-based. The conditions noted are these: 5637, 10.00 μmol/l, 24 h (FIG. 1C). On the procedure:
as §1, §2

Series [9] concerns SGC-7901 human gastric adenocarcinoma cells. Description: Wound healing (two-dimensional migration) assay, SGC-7901. The class given is cell-based. The following applies: SGC-7901, 10.00 μmol/l, 36 h (FIG. 1D). On the procedure: as §1
as §2, with “The cells were cultured in replaced medium without or with compounds at final concentrations of 0, 2.50, 5.00 and 10.00 μmol/L, respectively. At least seven randomly selected views along the scraped line in each well were photographed immediately and 24 h and 36 h after incubation using a digital camera at 50× magnification.” left out

Series [10] concerns ECV304 human vascular endothelial cells. Briefly: Two-dimensional migration of ECV304 (wound healing). The format is cell-based. The conditions noted are these: 10.00 μmol/L (FIG. 2A).
Setting [11] is: read-out: Inhibition against tumor cell colony formation IC50.

With `C=C1CCC2C(C)(COC(=O)c3cccnc3)C(OC(=O)c3cccnc3)CCC2(C)C1C=CC1=CC(=Cc2ccc(Cl)cc2)OC1=O` (stereo not shown) [Compound 3, 15-p-chlorobenzylidene-14-deoxy-11,12-didehydro-3,19-dinicotinate andrographolide], the “Inhibitory effect on two-dimensional migration” value in series [1] and in series [2] was “much stronger than that of other tumor cells” throughout. Further, the “IR (%) of lung metastasis” value is listed as 58.04% in series [3] (0.85 mmol/kg ig 24 d); 58.04% in [3] (0.85 mmol/kg ig 24 d, listed as compound 3); 65.18% in series [3] (1.10 mmol/kg ig 24 d); 65.18% in [3] (1.10 mmol/kg ig 24 d, listed as compound 3). Also, the figures for the Lung index in series [3] (0.85 mmol/kg ig 24 d) and in series [3] (1.10 mmol/kg ig 24 d) were 6.19 ± 0.76 mg/g and 6.39 ± 0.57 mg/g, respectively. Further, the “Nodule number (melanoma nodules in lungs)” value in [3] (0.85 mmol/kg ig 24 d) is 35.25 ± 14.45; in [3] (1.10 mmol/kg ig 24 d) it was 29.25 ± 881**^∇. For the same compound, the TNF-α in serum in the series with TNF-α (0.85 mmol/kg ig 24 d) is given as 0.52 ± 5.90; with TNF-α (1.10 mmol/kg ig 24 d) it was 11.11 ± 5.96. Moreover, the IL-1β in serum was 30.76 ± 3.25 pg/mL in the series on IL-1β (0.85 mmol/kg ig 24 d) and 17.86 ± 3.41 pg/mL in the series on IL-1β (1.10 mmol/kg ig 24 d). The results for the “Average net increase in body weight” value in series [4] (0.85 mmol/kg ig) and in series [4] (1.10 mmol/kg ig) were 1.64 g and 2.00 g, respectively.
Regarding `C=C1CCC2C(C)(CO)C(O)CCC2(C)C1C=CC1=CC(=Cc2ccc(Cl)cc2)OC1=O` (stereo not shown) [Compound 2, 15-p-chlorobenzylidene-14-deoxy-11,12-didehydro-andrographolide], the “Inhibition of colony formation compared with andrographolide” value in series [5], in series [6] and in [7] was “remarkably stronger than that of andrographolide” throughout. Further, the IC50 came to 1420 nM in [5] (setting [11]), 1380 nM in series [6] (setting [11]) and 2100 nM in [7] (setting [11]). Moreover, the “Inhibitory effect on two-dimensional migration” value in series [8] and in [9] was “much stronger than that of other tumor cells” each time. Also, the “Inhibition of two-dimensional migration of ECV304” value in series [10] is listed as “the most significant one”.

For orientation: IC50 means the concentration that gives 50% inhibition.
